These results are taken from US20140296143A1, “Angiotensin-(1-7) As A Chemoprevention Agent” (Wake Forest Innovations, priority 2008, published 2014).

The target in one series is T1, AT2 angiotensin receptor (Homo sapiens, UniProt P50052).
T1 sequence (P50052 1-363): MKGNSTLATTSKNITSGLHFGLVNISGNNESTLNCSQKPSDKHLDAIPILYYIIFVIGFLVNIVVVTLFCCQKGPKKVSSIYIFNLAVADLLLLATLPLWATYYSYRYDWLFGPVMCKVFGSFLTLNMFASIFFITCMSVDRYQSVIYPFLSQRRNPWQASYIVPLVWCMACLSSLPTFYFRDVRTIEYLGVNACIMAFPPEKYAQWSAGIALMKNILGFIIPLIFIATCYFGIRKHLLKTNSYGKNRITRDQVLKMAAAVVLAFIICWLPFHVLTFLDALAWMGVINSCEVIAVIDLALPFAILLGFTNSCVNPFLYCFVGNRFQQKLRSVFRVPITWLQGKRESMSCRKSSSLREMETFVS
The following applies: cited from earlier work.

Another series deals with COX-1 mRNA. Nature of the series: COX-1 mRNA in A549 cells. The class given is cell-based, human. The following applies: quiescent A549 cells, 100 nM, 2, 4, or 8 h. As for the experimental part:
(§1) For reverse-transcriptase real-time PCR, RNA was isolated from cells or tissue, using the TRIzol reagent (GIBCO Invitrogen Corp., Carlsbad, Calif.), as directed by the manufacturer. The RNA concentration and integrity were assessed using an Agilent 2100 Bioanalyzer with an RNA 6000 nano LabChip (Agilent Technologies, Palo Alto, Calif.). Approximately 1 μg of total RNA was reverse transcribed using avian myeloblastosis virus reverse transcriptase (RT) in a 20 μL mixture containing deoxyribonucleotides, random hexamers and RNase inhibitor in RT buffer. Heating the RT reaction product at 95° C. terminated the reaction. For real-time polymerase chain reaction (PCR), 2 μL of the resultant cDNA was added to TaqMan Universal PCR Master Mix (Applied Biosystems, Foster City, Calif.) with a gene-specific primer/probe set (Applied Biosystems, Foster City, Calif.) and amplification was performed on an ABI 7000 Sequence Detection System. The mixtures were heated at 50° C. for 2 min, at 95° C. for 10 min followed by 40 cycles at 95° C. for 15 sec and 60° C. for 1 min. […] The results were quantified as Ct values, where Ct is defined as the threshold cycle of PCR at which amplified product is first detected, and expressed as the ratio of target/control (Relative Gene Expression).

A further series deals with COX-2. Nature of the series: COX-2 protein (Western blot) and mRNA (RT real-time PCR) in A549 cells. The class given is cell-based, human. The procedure: as §1, with “System.” for “System. The mixtures were heated at 50° C. for 2 min, at 95° C. for 10 min followed by 40 cycles at 95° C. for 15 sec and 60° C. for 1 min.”
Quiescent A549 lung cancer cells or tumor tissue cut into approximately 1-2 mm^2 size pieces were homogenized in phosphate-buffered saline (PBS; 50 mM NaPO4, pH=7.2, 100 mM NaCl). […] The protein concentration was measured by a modification of the Lowry method. […]
On the technique in general: Immunoblotting shows a protein as a band on a membrane.

A further series has as its system EA.hy.926 cells. Nature of the series: Tube formation of endothelial cells in Matrigel. The following applies: over the range of 0.5 to 100 nM. Type of series: cell-based, human.
The next series has as its system caspase-3. Nature of the series: Caspase-3 activity in A549 cell lysates, fluorometric assay. The class given is cell-based, human. To be noted: A549 cells, 100 nM; maximal at 16 and 24 h. As for the experimental part:
The specificity of the activity of each caspase substrate was also verified by assays in the presence of specific inhibitors. […] Caspase-3 activity was measured by a fluorometric assay using Ac-DEVD-AFC (Acetylated-Asp-Glu-Val-Asp-7-amino-4-trifluoromethylcoumarin) (SEQ ID NO: 9) as a specific substrate for caspase-3 and Z-DEVD-CHO as a selective caspase-3 inhibitor. Caspase-8 activity was measured by a fluorometric assay using Ac-LETD-AFC (Acetylated-Leu-Glu-Thr-Asp-7-amino-4-trifluoromethylcoumarin) (SEQ ID NO: 10) as a specific substrate and Z-LETD-CHO as a selective caspase-8 inhibitor. The data are presented as relative fluorescence units (RFU).

In series [1] the test system is poly(ADP-ribose) polymerase (PARP). Nature of the series: Cleaved PARP (caspase-3 cleavage product) in serum-stimulated SK-LU-1 cells. The following applies: SK-LU-1, 10 nM, 4 to 8 hour treatment. The class given is cell-based, human. The procedure: Proteins were separated electrophoretically on SDS polyacrylamide gels, transferred to polyvinyl membranes, and incubated with primary antibodies to proteins of interest. Appropriate horseradish peroxidase (HRP)-conjugated second antibodies were added and immunoreactive products visualized using the enhanced chemoluminescence reagents from Amersham. The density of each immunoreactive product was quantified using the MCID imaging system. Antibodies to proteins that participate in cell signaling, apopotosis, and regulation of the cell cycle are commercially available from a variety of sources.
Since caspase-3 is activated during apoptosis, an increase in the generation of its […] can be a measure of apoptosis.

Another series deals with cellular levels of cAMP. To be noted: 1 μM, in the presence of 1 mM IBMX; n=3; U.S. Pat. No. 7,375,075; cited from earlier work.
For series [2] the following is noted: rats, Strawn 1999, cited from earlier work.
For the next series, the system named is caspase-9. Nature of the series: Caspase-9 activity in A549 cell lysates. The class given is cell-based, human. The following applies: A549 cells, 100 nM.
Another series concerns ERK1. The following applies: SK-LU-1, 10 nM pretreatment; Gallagher et al., 2004; cited from earlier work.

The structures appear in SMILES notation.

Method for EA.hy.926 cells: These cells are a transformed human endothelial cell line derived from umbilical vein endothelial cells. They retain their endothelial phenotype and were previously used to study angiogenesis.
After a 16 h incubation period to allow tube formation, cultures were photographed and branch points were counted, to quantify tube formation.

On to `CC[C@H](C)[C@H](NC(=O)[C@H](Cc1ccc(O)cc1)NC(=O)[C@@H](NC(=O)[C@H](CCCNC(=N)N)NC(=O)[C@@H](N)CC(=O)O)C(C)C)C(=O)N[C@@H](Cc1c[nH]cn1)C(=O)N1CCC[C@H]1C(=O)O` [Ang-(1-7), Asp-Arg-Val-Tyr-Ile-His-Pro], for which the “IC50 at the AT2 angiotensin receptor” value on AT2 angiotensin receptor (Tallant et al., 1999) is reported as “micromolar range”. Also, the “competition at the AT2 receptor” value on AT2 angiotensin receptor (literature) is “poor competitor”. Moreover, the “COX-1 mRNA” value in the series on COX-1 mRNA is “no change”. The “COX-2 mRNA” value in the series with COX-2 (100 nM, 2, 4 and 8 h) is on record as “significant reduction”. Besides, in the series on COX-2 (100 nM, 8-h treatment), the COX-2 protein result is “marked decrease”. Further, the “inhibition of tube formation” value with EA.hy.926 cells is reported as “dose-dependent inhibition”. The “time-dependent increase in caspase-3 activity” value in the series with caspase-3 was “about 2 fold”. Further, the “amount of cleaved PARP” value in [1] is on record as “increase”. In addition, in the series with cellular levels of cAMP, the “cellular levels of cAMP” value was 131.9±9.7 % of basal. Also, the “Ang-(1-7) in the circulation” value in series [2] (24 μg/kg/h intravenous, 12 days, n=6-8, from 0.052±0.005) was 0.185 ± 0.046 nM. In addition, the “tolerability: weight, blood pressure, heart rate” value in series [2] (24 μg/kg/hr) is reported as “no change in weight, blood pressure, or heart rate”. Moreover, the caspase-9 activity result with caspase-9 is recorded as “no effect”. For the same compound, the “reduction of serum-stimulated phosphorylation of ERK1” value with ERK1 was 61%.
